Columns and labels:
AdipoR1 [1] = molecular target: T1, AdipoR1 (Mus musculus, UniProt Q91VH1); assay: Measurement of AMPK phosphorylation ability (Assay 1), differentiated C2C12 cells, Western blotting; format: cell-based; conditions: 10 μM, 10 minutes
T1 construct: C2C12 cells (ATCC; CRL-1772, medium; host or cells: differentiated C2C12
T1 sequence (Q91VH1 1-375): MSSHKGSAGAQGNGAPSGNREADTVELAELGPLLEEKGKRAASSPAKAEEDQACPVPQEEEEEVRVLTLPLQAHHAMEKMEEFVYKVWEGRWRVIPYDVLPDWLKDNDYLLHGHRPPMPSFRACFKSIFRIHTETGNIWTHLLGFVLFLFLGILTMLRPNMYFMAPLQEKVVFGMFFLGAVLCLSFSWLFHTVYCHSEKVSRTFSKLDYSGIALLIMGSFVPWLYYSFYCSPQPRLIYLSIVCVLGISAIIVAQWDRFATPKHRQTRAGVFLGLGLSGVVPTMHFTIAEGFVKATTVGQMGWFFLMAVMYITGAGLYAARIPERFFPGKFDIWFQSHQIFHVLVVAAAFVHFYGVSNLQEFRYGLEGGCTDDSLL
Description: (§1) The AMPK phosphorylation ability of the respective compounds according to the present invention was measured by using differentiated C2C12 cells or HEK 293T cells.
C2C12 cells (ATCC; CRL-1772, medium; DMEM, 10% FBS) were cultured in a 12- or 24-well plate until they reached 100% confluency (37° C., 5% CO2).
The medium was changed to 2.5% Horse Serum (HS) and differentiation was started. The medium (DMEM, 2.5% HS) was replaced every three days.
After starvation, a test compound listed in Table 12 (concentration: 10 μM) was added thereto, and after 10 minutes, the medium was discarded and the plate was frozen with liquid nitrogen.
(§2) To the 12- or 24-well cell plate which had been frozen was added 100 or 150 μL of Cell lysis buffer pH 7.4 (50 mM HEPES (pH 7.4), 2 mM sodium orthovanadate, 10 mM sodium pyrophosphate, 10 mM NaF, 2 mM EDTA, 2 mM EGTA, 0.1% (v/v) NP-40, 0.2 mM PMSF), and the cells were scraped off with a cell scraper, suspended and transferred into a micro centrifugal tube. And then, the cells were ultrasonically crushed (1 second×3 times) with a sonicator. Centrifugation was performed at 4° C. at 15,000 rpm for 15 minutes, and the supernatant was recovered into a new tube.
(§3) To 100 μL of the supernatant was added 25 μL of 5× sample buffer (280 mM Tris-HCl (pH 6.9), 40% glycerol, 10% (3-mercaptoethanol, 13% SDS, a small amount of bromophenol blue) and mixed together. The rest of the supernatant was used for protein quantification, and the protein concentrations were uniformed by adding 1× sample buffer depending on the concentration of each sample.
(§4) An electrophoresis chamber was filled with 1× SDS buffer (25 mM Tris-HCl, 250 mM glycine, 0.1% SDS), and the sample was applied to a well of polyacrylamide gel. Electrophoresis was performed until the bromophenol blue in the sample reached to the bottom of the gel.
(§5) A filter paper was soaked in 1× Transfer buffer sufficiently, above which the PVDF membrane and the gel after electrophoresis were stacked in this order, and thereabove a filter paper which had been soaked in 1× Transfer buffer sufficiently was further stacked, from which an air was removed and the resultant was set in semi-dry type transfer apparatus and transferred (7V, 35 minutes).
(§6) An unnecessary portion of the blotted membrane was cutoff, and the rest was immediately soaked in blocking buffer (5% skimmed milk in Rinse buffer), and shaken at room temperature at 40 rpm for 3 hours.
(§7) After blocking, the membrane was transferred into Rinse buffer, and washed at room temperature for 10 minutes while shaking. The membrane was soaked in a primary antibody solution (AMPK alpha Antibody (Cell signaling; #2532) 1/1,000 in Rinse buffer, Phospho-AMPK alpha (Thr172) (40H9) antibody (Cell signaling; #2535) 1/1,000 in Rinse buffer), and shaken at 4° C. at 40 rpm overnight.
(§8) The membrane was soaked in a secondary antibody solution (goat anti-rabbit IgG-HRP Antibody (Santa Cruz; sc-2030) 1/2,000 in Rinse buffer), and shaken at room temperature at 40 rpm for 1 hour.
(§9) After the membrane was washed for 45 minutes in the same way as after the primary antibody reaction, the membrane was soaked in a chemiluminescent reaction solution (ECL Western Blotting Detection Reagents, GE Healthcare) for about 1 minute. An excess of the reaction solution was removed, and then the membranes were arranged on a transparent film and sandwiched with it, with which an X-ray film was exposed in a darkroom (for about several seconds to 60 seconds) to develop the film.
(§10) The X-ray film was scanned to take the image, for which the band was measured by using the image analysis software “Image J” to determine the respective amounts of pAMPK and AMPK.

AdipoR1 [2] = assay: Measurement of AMPK phosphorylation ability (Assay 2), C2C12 cells with unrelated or AdipoR1 siRNA; format: cell-based, Mouse
Description: C2C12 cells (ATCC; CRL-1772, medium; DMEM, 10% Fetal Bovine Serum (FBS)) were cultured in a 12- or 24-well plate until they reached 100% confluency (37° C., 5% CO2). The medium was changed to DMEM, 2.5% Horse Serum (HS) and differentiation was started. The medium (DMEM, 2.5% HS) was replaced two days after the start of differentiation. The medium (DMEM, 2.5% HS) was further replaced two days after that.
On the next day following the replacement of the medium, first, 1 μL of Lipofectamine RNAiMAX and 50 μL of OPTI-MEM were mixed, and then 5 μM siRNA (sense siRNA sequence: […]tt (SEQ ID NO: 1)) and 50 μL of OPTI-MEM were mixed and the resultants were left to stand at room temperature for 5 minutes. And then, the 1 μL Lipofectamine RNAiMAX/50 μL OPTI-MEM and the 5 μM siRNA/50 μL OPTI-MEM were mixed, and the resultant was left to stand at room temperature for 10 minutes, which was added to the cells.
After 5 minutes, the medium (DMEM, 2.5 HS) was replaced, and after starvation on the next day, a test compound listed in Table 12 was added thereto. After 10 minutes, the medium was discarded and the plate was frozen with liquid nitrogen.
(§11) The respective amounts of pAMPK and AMPK were determined in the same way as in the above Assay 1.

AdipoR1 [3] = molecular target: T2, AdipoR1 (Homo sapiens, UniProt Q96A54); assay: Measurement of AMPK phosphorylation ability (Assay 2), HEK 293T cells with unrelated or AdipoR1 siRNA; format: cell-based; parameters: HEK 293T cells (ATCC; CRL-3216, medium; host or cells: HEK 293T
T2 sequence (Q96A54 1-375): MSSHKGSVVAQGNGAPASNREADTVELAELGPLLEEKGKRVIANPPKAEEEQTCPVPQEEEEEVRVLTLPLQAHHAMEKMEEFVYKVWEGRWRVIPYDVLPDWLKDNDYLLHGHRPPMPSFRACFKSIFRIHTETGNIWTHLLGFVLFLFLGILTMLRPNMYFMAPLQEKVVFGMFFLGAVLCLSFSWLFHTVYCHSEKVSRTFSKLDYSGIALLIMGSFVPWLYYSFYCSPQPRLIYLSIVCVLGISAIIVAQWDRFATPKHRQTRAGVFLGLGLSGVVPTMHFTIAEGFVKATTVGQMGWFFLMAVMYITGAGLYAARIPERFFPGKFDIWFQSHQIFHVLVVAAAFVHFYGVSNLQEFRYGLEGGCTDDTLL
Description: HEK 293T cells (medium; DMEM, 10% FBS) were cultured in a 24-well plate until they reached 60% confluency (37° C., 5% CO2).
First, 1 μL of Lipofectamine RNAiMAX and 50 μL of OPTI-MEM were mixed, and then 5 μM siRNA (sense siRNA sequence: […]tt (SEQ ID NO: 1)) and 50 μL of OPTI-MEM were mixed and the resultants were left to stand at room temperature for 5 minutes. And then, the 1 μL Lipofectamine RNAiMAX/50 μL OPTI-MEM and the 5 μM siRNA/50 μL OPTI-MEM were mixed, and the resultant was left to stand at room temperature for 10 minutes, which was added to the cells.
After 5 minutes, the medium (DMEM, 10% FBS) was replaced, and after starvation on the next day, a test compound listed in Tables 10 and 11 was added thereto. After 10 minutes, the medium was discarded and the plate was frozen with liquid nitrogen.
as §11

AdipoR1 [4] = molecular target: T2, AdipoR1; assay: Measurement of AMPK phosphorylation ability (Assay 1), HEK 293T cells, Western blotting; format: cell-based; parameters: HEK 293T cells (ATCC; CRL-3216, medium; host or cells: HEK 293T; conditions: 10 minutes
Description: as §1
HEK 293T cells (ATCC; CRL-3216, medium; DMEM, Fetal Bovine Serum (FBS)) were cultured in a 12- or 24-well plate until they reached 100% confluency (37° C., 5% CO2).
After starvation, a test compound listed in Tables 10 and 11 (concentration: 25 μM, 50 μM) was added thereto, and after 10 minutes, the medium was discarded and the plate was frozen with liquid nitrogen.
as §2, §3, §4, §5, §6, §7, §8, §9, §10

Structure (SMILES) | pAMPK/AMPK (%) (AdipoR1 [1]) | pAMPK/AMPK (ratio) siRNA, AdipoR1 siRNA (AdipoR1 [2]) | pAMPK/AMPK (ratio) siRNA, unrelated siRNA (AdipoR1 [2]) | pAMPK/AMPK (ratio) siRNA, AdipoR1 siRNA (AdipoR1 [3]) | pAMPK/AMPK (ratio) siRNA, unrelated siRNA (AdipoR1 [3]) | pAMPK/AMPK (%) (AdipoR1 [4]; 25 μM) | pAMPK/AMPK (%) (AdipoR1 [4]; 50 μM)
COCCNC(=O)c1ccc(OC2CCN(Cc3ccc(C)s3)CC2)c(Cl)c1 [No. 197372] | 85.37% | 1.96 ratio | 1.78 ratio | – | – | – | –
COCCNC(=O)c1ccc(OC2CCN(Cc3cc4ccccc4o3)CC2)c(Cl)c1 [No. 473771] | 85.03% | 2.39 ratio | 1.67 ratio | – | – | – | –
CCOCCCNC(=O)c1ccc(OC2CCN(CC(C)(C)C)CC2)c(Cl)c1 [No. 209705] | 81.28% | 1.81 ratio | 1.52 ratio | – | – | – | –
O=C(NCc1ccncc1)c1ccc(OC2CCN(Cc3ccoc3)CC2)cc1 [No. 196462] | 82.72% | 2.58 ratio | 2.06 ratio | – | – | – | –
COc1cc(C(C)=O)ccc1OCC(=O)NC1CCN(Cc2ccc(Cl)c(Cl)c2)CC1 [Compound 15] | – | – | – | 3.49 ratio | 3.27 ratio | 88.71% | 88.18%
CCOc1ccc(OCC(=O)NC2CCN(Cc3cccc(C(F)(F)F)c3)CC2)cc1 [Compound 40] | – | – | – | 2.25 ratio | 2.25 ratio | 80.20% | 91.33%
O=C(COc1ccc(Oc2ccccn2)cc1)NC1CCN(Cc2ccc(F)cc2)CC1 [Compound 48] | – | – | – | 3.16 ratio | 3.42 ratio | 80.04% | 85.28%

Reference: US20170298051A1, “ACTIVATOR OF ADIPONECTIN RECEPTOR” (THE UNIVERSITY OF TOKYO, priority 2013, published 2017)
